| Compound | melting point [°C] |
| --- | --- |
| N=c1n(Cc2ccc(F)c(F)c2)c2ccc(Br)cc2n1Cc1ccc(F)c(F)c1 | 88 to 89.5 |
| COC(=O)CC(NCc1ccccc1)=C(C(=O)OC)C(=O)C(F)(F)F | 89.5 to 90.5 |
| CS(=O)(=O)Oc1cccnc1 | 56 to 58 |
| CC(CNC(=O)[C@@H]1CSC(=O)N1)O[N+](=O)[O-] (stereo not given in full) | 70 to 72 |
| Cc1cc(N(C)C)ccc1C1(N(c2ccc(N(C)C)cc2)c2ccc(N(C)C)cc2)OC(=O)c2ccccc21 (stereo not given) | 97 to 113 |
| CCOC(=O)C(=CNc1ccc(F)c(-c2ccncc2)n1)C(=O)OCC | 140 to 141 |
| Cn1c(=O)ccc2cnc(Nc3ccccc3)nc21 | 244 to 247 |
| Cn1ccnc1Sc1ccc(Nc2c(C#N)cnc3cc(/C=C/CCN4CCC(N5CCCC5)CC4)sc23)cc1Cl | 213 to 216 |
| CCN(CC)C(=O)n1cnc(S(=O)(=O)CC2CCCCC2)n1 | 40 to 46 |
| Cc1sc(-c2cccs2)cc1Br | 36 to 37 |
| CCOC(=O)/C=C/c1ccc(Cl)nn1 | 106 to 110 |
| CCOc1csc2c(=O)c(C(N)=O)cn(C)c12 | 286 to 287 |
| CC(=O)OCc1cc(=O)n2c(ccn2-c2ccccc2)n1 | 172 to 175 |
| CC(CCc1ccc(N(C)C)cc1)NCC(O)c1sccc1C(N)=O (stereo not given) | 118 to 121 |
| CCc1cccc(C)c1N(CN1CCOC1=O)C(=O)CCl | 101 to 102 |
| CCCCCCCCCCCCCCOc1ccc([N+](=O)[O-])cc1OCCCCCCCCCCCCCC | 64 to 66 |
| Cn1nnc(-c2ccc3c(c2)S(=O)(=O)c2ccccc2C3=O)n1 | 204 to 205 |
| Cc1ccc(C23CN(C)CC2CC32SCCS2)cc1 (stereo not given) | 81 to 86 |
| CC(=O)OCCCc1c(C)[nH]c(C(=O)OC(C)(C)C)c1C | 73 |
| COc1cc2c(cc1-c1cnccn1)-c1c(-c3cncs3)c3c(n1CC2)C(=O)N(C(C)(C)C)CCCOC3 | 235 to 236 |

| Compound | melting point [°C] |
| --- | --- |
| CC(C)(C)OC(=O)NCCNC(=O)c1cscn1 | 112 to 118 |
| CCn1cc(CN(C(=O)C2CCCc3c(OCCCN(C)C)cccc32)c2ccc(C(C)C)cc2)cn1 (stereo not given) | 143 |
| CCN(C=O)Cc1ccc(NCCN(CC)CC)c2c(=O)c3ccccc3sc12 | 75 to 77 |
| COc1cc(COc2ccc3nc(NC(=O)OCCN(C)C)cn3n2)cc(OC)c1OC | 185 to 186 |
| Oc1ccc2nc(-c3ccc(C45CC6CC(CC(C6)C4)C5)c(O)c3)[nH]c2c1 | 250 to 252 |
| COc1cc(C)nc(NC(=O)NS(=O)(=O)c2ccccc2C(CF)OC(C)=O)n1 (stereo not given) | 198 to 200 |
| Cc1nc2cc(NCC(=O)C3(C)CC3)ccc2s1 | 116 to 120 |
| CCCC=Cc1c(C)nc(C(C)C)c(CO)c1-c1ccc(F)cc1 | 106 to 108 |
| CC(=O)Nc1c(OC(C)=O)cc(C(=O)O)cc1[N+](=O)[O-] | 196 to 201 |
| CC(=O)Nc1nc(-c2ccco2)c(C(=O)c2ccccn2)s1 | 216 to 217 |
| Cc1ncsc1C(C)(O)c1ccsc1 (stereo not given) | 149 to 151 |
| COc1ccc(CN2C(=O)C(N)C(=O)N(CC34CC5CC(CC(C5)C3)C4)c3ccccc32)cc1 (stereo not given) | 223 to 225 |
| COc1cncnc1N1CCN(CCCc2c[nH]c3ccc(Nc4cc(=O)c4=O)cc23)CC1C (stereo not given) | 191 to 193 |
| Cc1cc(C(F)(C(F)(F)F)C(F)(F)F)cc(C)c1NC(=O)c1cc(F)c(C#N)c(NC(=O)c2ccccc2)c1F | 245 to 248 |
| Nc1nnc(-c2ccccc2Cl)c(-c2ccccc2Cl)n1 | 240 to 242 |
| O=C(Nc1ccc(OC(F)(F)F)cc1)N[C@H]1CC[C@H](O)CC1 | 224 to 225 |
| FC(F)(F)Oc1cccc(COc2cccc(-c3nnc(Nc4ccc(Cl)c(Cl)c4)s3)c2)c1 | 166 to 167 |
| COc1ccccc1-c1cc(O)c(-c2ccccc2C(=O)O)nn1 | 224 to 227 |
| CCNC(=O)c1ccc(-n2nnc(C(=O)NC3CC3)c2CSC)cc1 | 192 |
| COc1cccc(C(=NO)c2ccc(F)cc2F)c1 | 122 to 127 |
